Laboratory results from patent US7642245B2, “Antibacterial compounds having a (pyrrole carboxamide)-(benzamide)-(imidazole carboxamide) motif” (Oscient Pharmaceuticals Corporation, priority 2002, dated 2010).

Legend:
S. aureus ATCC 13709 = test: MIC, NCCLS broth microdilution; type: cell-based, Staphylococcus aureus; conditions: A = S. aureus ATCC 13709 (MSSA)
Outline: (§1)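 Compounds were serially diluted in broth and tested against each strain according to NCCLS guidelines, with MIC taken as the endpoint. C. albicans was assayed per the Manual of Clinical Microbiology.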

S. aureus ATCC 27660 = test: MIC, NCCLS broth microdilution; type: cell-based, Staphylococcus aureus; conditions: B = S. aureus ATCC 27660 (MRSA)
Outline: as §1

C. albicans ATCC 38247 = test: MIC, antifungal assay; type: cell-based, Candida albicans; conditions: F = C. albicans ATCC 38247
Outline: as §1

[1] = system: M. catarrhalis (ATCC 25238); test: MIC, NCCLS broth microdilution; type: cell-based, Moraxella (now Branhamella) catarrhalis; conditions: H = M. catarrhalis (ATCC 25238)
Outline: as §1

E. faecalis ATCC 29212 = test: MIC, NCCLS broth microdilution; type: cell-based, Enterococcus faecalis; conditions: C = E. faecalis ATCC 29212
Outline: (§2)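 Broth microdilution MIC per NCCLS M7-A4 and M11-A4 for bacteria (MRSA strain for S. aureus ATCC 27660); antifungal MIC per NCCLS M27-T with the Murray 1995 Manual of Clinical Microbiology method. MIC taken as lowest inhibitory concentration.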

B. cereus ATCC 11778 = test: MIC, NCCLS broth microdilution; type: cell-based, Bacillus cereus; conditions: D = B. cereus ATCC 11778
Outline: as §1

E. coli ATCC 25922 = test: MIC, NCCLS broth microdilution; type: cell-based, Escherichia coli; conditions: G = E. coli ATCC 25922
Outline: as §2

S. pneumoniae ATCC 49619 = test: MIC, NCCLS broth microdilution; type: cell-based, Streptococcus pneumoniae; conditions: E = S. pneumoniae ATCC 49619
Outline: as §2

Row | Minimum Inhibitory Concentration (MIC) (S. aureus ATCC 13709) | Minimum Inhibitory Concentration (MIC) (S. aureus ATCC 27660) | Minimum Inhibitory Concentration (MIC) (C. albicans ATCC 38247) | Minimum Inhibitory Concentration (MIC) [1] | Minimum Inhibitory Concentration (MIC) (E. faecalis ATCC 29212) | Minimum Inhibitory Concentration (MIC) (B. cereus ATCC 11778) | Minimum Inhibitory Concentration (MIC) (E. coli ATCC 25922) | Minimum Inhibitory Concentration (MIC) (S. pneumoniae ATCC 49619) | SMILES
1 | +++ (MIC ≦ 4 μg/mL) | +++ (MIC ≦ 4 μg/mL) | >32 µg/mL | >32 µg/mL | +++ (MIC ≦ 4 μg/mL) | +++ (MIC ≦ 4 μg/mL) | >32 µg/mL | +++ (MIC ≦ 4 μg/mL) | Cn1cc(NC(=O)c2cc3ccccc3cn2)cc1C(=O)Nc1ccc(C(=O)Nc2cn(C)c(C(=O)NCCN3CCC(OC(=O)CNC(=O)C4OC(O)C(O)C(O)C4O)CC3)n2)cc1 (centres unmarked) [Compound A-74]
2 | +++ (MIC ≦ 4 μg/mL) | +++ (MIC ≦ 4 μg/mL) | >32 µg/mL | +++ (MIC ≦ 4 μg/mL) | +++ (MIC ≦ 4 μg/mL) | +++ (MIC ≦ 4 μg/mL) | >32 µg/mL | +++ (MIC ≦ 4 μg/mL) | Cn1cc(NC(=O)c2cc3ccccc3cn2)cc1C(=O)Nc1ccc(C(=O)Nc2cn(C)c(C(=O)NCCN3CCN(CCOC(=O)CN)CC3)n2)cc1 [Compound A-62]

More lines, now with the values behind:

Row | SMILES | Minimum Inhibitory Concentration (MIC) (S. aureus ATCC 13709) | Minimum Inhibitory Concentration (MIC) (S. aureus ATCC 27660) | Minimum Inhibitory Concentration (MIC) (C. albicans ATCC 38247) | Minimum Inhibitory Concentration (MIC) [1] | Minimum Inhibitory Concentration (MIC) (E. faecalis ATCC 29212) | Minimum Inhibitory Concentration (MIC) (B. cereus ATCC 11778) | Minimum Inhibitory Concentration (MIC) (E. coli ATCC 25922) | Minimum Inhibitory Concentration (MIC) (S. pneumoniae ATCC 49619)
3 | COCCN(C)CCNC(=O)c1nc(NC(=O)c2ccc(NC(=O)c3cc(NC(=O)c4cc5ccccc5cn4)cn3C)cc2)cn1C [Compound A-29] | +++ (MIC ≦ 4 μg/mL) | +++ (MIC ≦ 4 μg/mL) | + (12 ≦ MIC ≦ 32 μg/mL) | +++ (MIC ≦ 4 μg/mL) | +++ (MIC ≦ 4 μg/mL) | +++ (MIC ≦ 4 μg/mL) | ++ (4 < MIC < 12 μg/mL) | +++ (MIC ≦ 4 μg/mL)
4 | COCCN(CCNC(=O)c1nc(NC(=O)c2ccc(NC(=O)c3cc(NC(=O)c4cc5ccccc5cn4)cn3C)cc2)cn1C)CCOC [Compound A-22] | +++ (MIC ≦ 4 μg/mL) | +++ (MIC ≦ 4 μg/mL) | >32 µg/mL | +++ (MIC ≦ 4 μg/mL) | +++ (MIC ≦ 4 μg/mL) | +++ (MIC ≦ 4 μg/mL) | >32 µg/mL | +++ (MIC ≦ 4 μg/mL)
5 | Cn1cc(NC(=O)c2cc3ccccc3cn2)cc1C(=O)Nc1ccc(C(=O)Nc2cn(C)c(C(=O)NCCNC3CCCCC3)n2)cc1 [Compound A-35] | +++ (MIC ≦ 4 μg/mL) | +++ (MIC ≦ 4 μg/mL) | >32 µg/mL | ++ (4 < MIC < 12 μg/mL) | +++ (MIC ≦ 4 μg/mL) | +++ (MIC ≦ 4 μg/mL) | >32 µg/mL | +++ (MIC ≦ 4 μg/mL)
6 | Cn1cc(NC(=O)c2cc3ccccc3cn2)cc1C(=O)Nc1ccc(C(=O)Nc2cn(C)c(C(=O)NCCNCCCO)n2)cc1 [Compound A-43] | +++ (MIC ≦ 4 μg/mL) | +++ (MIC ≦ 4 μg/mL) | >32 µg/mL | >32 µg/mL | +++ (MIC ≦ 4 μg/mL) | +++ (MIC ≦ 4 μg/mL) | >32 µg/mL | +++ (MIC ≦ 4 μg/mL)
7 | Cn1cc(NC(=O)c2cc3c(N)cccc3cn2)cc1C(=O)Nc1ccc(C(=O)Nc2cn(C)c(C(=O)NCCN3CCC(O)CC3)n2)cc1 [Compound A-8] | +++ (MIC ≦ 4 μg/mL) | +++ (MIC ≦ 4 μg/mL) | ++ (4 < MIC < 12 μg/mL) | ++ (4 < MIC < 12 μg/mL) | +++ (MIC ≦ 4 μg/mL) | +++ (MIC ≦ 4 μg/mL) | ++ (4 < MIC < 12 μg/mL) | +++ (MIC ≦ 4 μg/mL)
